Source: patent US8871796B2, “Diaryl ether derivatives as notch sparing gamma secretase inhibitors” (Merck Sharp & Dohme Corp., priority 2009, dated 2014)
Where two headings read alike, the source gives them in different places.

Tests used:
[1] = Pharmacokinetics in rats, IV or PO dosing, plasma LC-MS/MS; type: in vivo, Sprague Dawley rats; conditions: for clearance / bioavailability / half-life: Sprague Dawley; for clearance: intravenous, read-out: Rat Cl; for AUC(Norm)(0-x): dose-normalised
Experimental: Pharmacokinetic parameters are determined in Sprague Dawley rats, Beagle dogs or Rhesus monkeys by dosing the compounds intravenously (IV) or orally (PO). A dose of 0.25 mg/kg is administered either IV or PO to each subject with a dosing solution of 0.25 mg/ml in a 30:70 v/v mixture of PEG400:40% Captisol®. Plasma samples are collected at 5 min. (IV only), 15 min., 30 min., 1 h, 2 h, 4 h, 6 h, 8 h, 24 h, 48 h, 72 h, 96 h, 120 h, 144 h, and 168 h. Samples are analyzed by LC-MS/MS (API5000™) to determine the concentration in plasma. Briefly, 50 μL plasma is precipitated with 200 μL acetonitrile containing an appropriate internal standard. Samples are filtered, 500 pt of water is added to each sample and 10 μl, of this is injected on a C18 column (2.0 mm×30 mm, 3 μm particle size) and eluted using a gradient LC method with water containing 0.1% formic acid as the aqueous mobile phase, and acetonitrile containing 0.1% formic acid as the organic phase. Electrospray ionization with multiple reaction monitoring is used for MS/MS detection. Plasma concentration of the compounds is determined using a standard curve that was prepared similar to the samples in the respective matrix. Non-compartmental analysis is performed using Watson 7.2 to generate the PK parameters.

[2] = APP processing: AlphaLisa assay of secreted Aβ40 and Aβ42 from SP4CT cells; type: cell-based; conditions: Homo sapiens, SH-SY5Y cells expressing amyloid β protein (SP4CT cells)
Method in brief: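 Secreted Aβ40 and Aβ42 were quantified separately by AlphaLisa luminescence, pairing streptavidin donor beads bearing biotinylated 4G8 with G210 or 12F4 acceptor beads. Samples were conditioned media from compound-treated SH-SY5Y cells expressing amyloid β protein (SP4CT).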

[3] = plasma, rat, 0.25 mg/kg IV or PO
[4] = read-out: IC50, inhibition of production of Aβ40 peptide
[5] = read-out: IC50, inhibition of production of Aβ42 peptide

| AUC(Norm)(0-x) ([1]; rat, 0.25 mg/kg, plasma) [µM·kg·h/mg] | IC50 [2, 4] [nM] | IC50 [2, 5] [nM] | other results | Compound |
| --- | --- | --- | --- | --- |
| 0.79 |  |  | clearance ([1]; rat, 0.25 mg/kg, plasma): 43 mL/min/kg; bioavailability [1, 3]: 9%; half-life ([1]; rat, 0.25 mg/kg, plasma): 2.3 h | CCn1nc(COc2ccc(F)cc2)cc1-c1cccc(C(C)(C)NS(=O)(=O)NC2CCC2)c1 [Example 2 from WO 2004/089911 A1, reference compound] |
| 35 |  |  | Rat Cl ([1]; 0.25 mg/kg, plasma): 1 mL/min/kg; % F ([1]; rat, 0.25 mg/kg IV or PO): 70%; t1/2 ([1]; rat, 0.25 mg/kg, plasma): 16 h | N-(1-{3-[1-ethyl-3-(4-fluorophenoxy)-1H-pyrazol-5-yl]phenyl}-1-methylethyl)-2,2,2-trifluoroethanesulfonamide [Example 53] |
| 0.96 | < 200 | < 200 | clearance ([1]; rat, 0.25 mg/kg, plasma): 31 mL/min/kg; bioavailability [1, 3]: 75%; half-life ([1]; rat, 0.25 mg/kg, plasma): 9 h | CCn1nc(Oc2ccc(C(F)(F)F)cc2)cc1-c1cccc(C(C)(C)NS(=O)(=O)NCC(F)(F)F)c1 [Example 19, N-[1-(3-{1-ethyl-3-[4-(trifluoromethyl)phenoxy]-1H-pyrazol-5-yl}phenyl)-1-methylethyl]-N′-(2,2,2-trifluoroethyl)sulfamide] |
| 0.92 |  |  | clearance ([1]; rat, 0.25 mg/kg, plasma): 35 mL/min/kg; bioavailability [1, 3]: 28%; half-life ([1]; rat, 0.25 mg/kg, plasma): 4.8 h | CCn1nc(COc2ccc(C#N)cc2)cc1-c1cccc(C(C)(C)NS(=O)(=O)NC(F)(F)F)c1 [Example 27 from WO 2004/089911 A1, reference compound] |
| 0.25 |  |  | clearance ([1]; rat, 0.25 mg/kg, plasma): 120 mL/min/kg; half-life ([1]; rat, 0.25 mg/kg, plasma): 5.4 h | CCn1nc(-c2cccc(C(C)(C)NS(=O)(=O)CC(F)(F)F)c2)cc1CN1CCC(C(F)(F)F)CC1 [Example 23 from WO 2004/089911 A1, reference compound] |
|  | < 200 | < 200 |  | CCn1nc(-c2cccc(C3(NS(=O)(=O)NC4CCCC4)CC3)c2)cc1Oc1ccc(C(F)(F)F)cc1 [Example 35, N-cyclopentyl-N′-[1-(3-{1-ethyl-5-[4-(trifluoromethyl)phenoxy]-1H-pyrazol-3-yl}phenyl)cyclopropyl] sulfamide] |
|  | < 200 | < 200 |  | CCn1nc(-c2cccc(C(C)(C)NS(=O)(=O)CC(F)(F)F)c2)cc1Oc1ccc(C(F)F)cc1 [Example 64, N-[1-(3-{5-[4-(difluoromethyl)phenoxy]-1-ethyl-1H-pyrazol-3-yl}phenyl)-1-methylethyl]-2,2,2-trifluoroethanesulfonamide] |
|  | < 200 | < 200 |  | CC(C)(NS(=O)(=O)CC(F)(F)F)c1cccc(-c2cc(Oc3ccc(C(F)(F)F)cc3)n(CCO)n2)c1 [Example 105, 2,2,2-trifluoro-N-[1-(3-{1-(2-hydroxyethyl)-5-[4-(trifluoromethyl)phenoxy]-1H-pyrazol-3-yl}phenyl)-1-methylethyl]ethanesulfonamide] |
|  | < 200 | < 200 |  | CN(C)C(=O)Cn1nc(-c2cccc(C3(NS(=O)(=O)CC(F)(F)F)COC3)c2)cc1Oc1ccc(C(F)(F)F)cc1 [Example 131, 2-[5-(4-trifluoromethylphenoxy)-3-(3-{3-[(2,2,2-trifluoroethylsulfonyl)amino]oxetan-3-yl}phenyl)-1H-pyrazol-1-yl]-N,N-dimethylacetamide] |
|  | < 200 | < 200 |  | CCn1nc(-c2cccc(C(C)(C)NS(=O)(=O)N3CCCC3)c2)cc1Oc1ccc(C(F)(F)F)cc1 [Example 11, N-[1-(3-{1-ethyl-5-[4-(trifluoromethyl)phenoxy]-1H-pyrazol-3-yl}phenyl)-1-methylethyl]pyrrolidine-1-sulfonamide] |
|  | < 200 | < 200 |  | CCn1nc(-c2cccc(C(C)(C)NS(=O)(=O)CC(F)(F)F)c2)cc1Oc1ccc(CNc2ccon2)cc1 [Example 83, N-{1-[3-(1-ethyl-5-{4-[(isoxazol-3-ylamino)methyl]phenoxy}-1H-pyrazol-3-yl)phenyl]-1-methylethyl}-2,2,2-trifluoroethanesulfonamide] |
|  | < 200 | < 200 |  | Cc1nnc(Cn2nc(-c3cccc(C4(NS(=O)(=O)CC(F)(F)F)COC4)c3)cc2Oc2ccc(C(F)(F)F)cc2)o1 [Example 136, N-(3-{3-[5-(4-trifluoromethylphenoxy)-1-(5-methyl-1,3,4-oxadiazol-2-ylmethyl)-1H-pyrazol-3-yl]phenyl}oxetan-3-yl)-2,2,2-trifluoroethanesulfonamide] |
|  | < 200 | < 200 |  | CCn1nc(Oc2ccc(C(F)(F)F)cc2)cc1-c1ccc2c(c1)CC(NS(=O)(=O)NC1CCC1)C2 (stereo not shown) [Example 125, N-cyclobutyl-N′-(5-{1-ethyl-3-[4-(trifluoromethyl)phenoxy]-1H-pyrazol-5-yl}-2,3-dihydro-1H-inden-2-yl)sulfamide] |
|  | < 200 | < 200 |  | O=C(Cn1nc(-c2cccc(C3(NS(=O)(=O)CC(F)(F)F)COC3)c2)cc1Oc1ccc(C(F)(F)F)cc1)N1CCOCC1 [Example 133, N-[3-(3-{5-(4-trifluoromethylphenoxy)-1-[2-oxo-2-(morpholin-4-yl)ethyl]-1H-pyrazol-3-yl}phenyl)oxetan-3-yl]- ,2,2,2-trifluoroethanesulfonamide] |
|  | < 200 | < 200 |  | CCn1nc(Oc2ccc(C(F)(F)F)cn2)cc1-c1cccc(C2(NS(=O)(=O)CC(F)(F)F)CC2)c1 [Example 32, N-{1-[3-(1-ethyl-3-{[5-(trifluoromethyl)pyridin-2-yl]oxy}-1H-pyrazol-5-yl)phenyl]cyclopropyl}-2,2,2-trifluoroethanesulfonamide] |
|  | < 200 | < 200 |  | CCn1nc(-c2cccc(C(C)(C)NS(=O)(=O)CC(F)(F)F)c2)cc1Oc1ccc(C(O)C(C)C)cc1 (stereo not shown) [Example 66, N-[1-(3-{1-ethyl-5-[4-(1-hydroxy-2-methylpropyl)phenoxy]-1H-pyrazol-3-yl}phenyl)-1-methylethyl]-2,2,2-trifluoroethanesulfonamide] |
|  | < 200 | < 200 |  | CCn1nc(-c2cccc(C(C)(C)NS(=O)(=O)CC(F)(F)F)c2)cc1Oc1ccc(C(C)(C)C)cc1 [Example 60, N-(1-{3-[5-(4-tert-butylphenoxy)-1-ethyl-1H-pyrazol-3-yl]phenyl}-1-methylethyl)-2,2,2-trifluoroethanesulfonamide] |
| 0.09 | < 200 | < 200 | clearance ([1]; rat, 0.25 mg/kg, plasma): 41 mL/min/kg; bioavailability [1, 3]: 12%; half-life ([1]; rat, 0.25 mg/kg, plasma): 2.8 h | CCn1nc(-c2cccc(C3(NS(=O)(=O)NCC(F)(F)F)COC3)c2)cc1Oc1ccc(C(F)(F)F)cc1 [Example 96, N-[3-(3-{1-ethyl-5-[4-(trifluoromethyl)phenoxy]-1H-pyrazol-3-yl}phenyl)oxetan-3-yl]-N′-(2,2,2-trifluoroethyl)sulfamide] |
|  | < 200 | < 200 |  | CCn1nc(-c2cccc(C(C)(C)NS(=O)(=O)NC3CCC3)c2)cc1Oc1ccc(C(F)(F)F)cc1 [Example 3, N-cyclobutyl-N′-[1-(3-{1-ethyl-5-[4-(trifluoromethyl)phenoxy]-1H-pyrazol-3-y}phenyl)-1-methylethyl]sulfamide] |
|  | < 200 | < 200 |  | CCn1nc(-c2cccc(C(C)(C)NS(=O)(=O)CC(F)(F)F)c2)cc1Oc1ccc(CNCc2ccccc2)cc1 [Example 79, N-{1-[3-(5-{4-[(benzylamino)methyl]phenoxy}-1-ethyl-1H-pyrazol-3-yl)phenyl]-1-methylethyl}-2,2,2-trifluoroethanesulfonamide] |
